# Laboratory results: patent publication US20230365592A1 (Agios Pharmaceuticals, Inc., priority 2022, published 2023)
# Biological target: T1, human PAH with the R408W mutation (Homo sapiens, UniProt P00439, R408W)
# T1 construct: expressed in transfected cells
# T1 sequence (P00439 1-452 R408W): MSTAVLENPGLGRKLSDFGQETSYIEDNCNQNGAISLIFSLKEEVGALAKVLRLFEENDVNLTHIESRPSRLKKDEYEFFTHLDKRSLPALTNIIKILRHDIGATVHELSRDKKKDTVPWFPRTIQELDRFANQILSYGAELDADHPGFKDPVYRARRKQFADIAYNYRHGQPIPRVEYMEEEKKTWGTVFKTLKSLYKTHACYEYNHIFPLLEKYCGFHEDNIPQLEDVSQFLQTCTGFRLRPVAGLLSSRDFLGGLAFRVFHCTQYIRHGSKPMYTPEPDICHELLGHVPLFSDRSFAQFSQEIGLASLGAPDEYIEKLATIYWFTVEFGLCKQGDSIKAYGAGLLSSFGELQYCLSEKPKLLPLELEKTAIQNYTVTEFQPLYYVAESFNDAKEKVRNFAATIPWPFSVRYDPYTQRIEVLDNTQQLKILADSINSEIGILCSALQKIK
# Assay: Cell Based Phenylalanine Flux Assay;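 also: after compound treatment, cells received sepiapterin plus isotope-labelled Phenylalanine for 4 hours, then labelled Tyrosine in the medium was quantified, 10-point 2-fold dilution series run in duplicate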
# Conditions: A375 cells expressing R408W PAH; 24 hrs with compound, then 20 µM sepiapterin and 800 µM 13C9,15N-Phenylalanine for 4 hours; 13C-Tyrosine by LC-MS; average where tested multiple times; read-out: AC50
row,SMILES,AC50
1,Cc1c(C2c3nc[nH]c3CCN2C(=O)c2nnc(-c3ccn(C)n3)o2)nn2ccccc12 (stereo not shown) [listing 1 of 2 here],> 5 µM
2,O=C(c1nnc(-c2cc[nH]n2)o1)N1CCc2[nH]cnc2C1c1cc2ccccn2n1 (stereo not shown),> 5 µM
3,CC(C)(F)c1nnc(C(=O)N2CCc3[nH]cnc3C2c2cc3ccccn3n2)o1 (stereo not shown) [listing 1 of 2 here],1 to 5 µM
4,Cc1cccc2cc(C3c4nc[nH]c4CCN3c3nnc(-c4cnccn4)o3)nn12 (stereo not shown) [listing 1 of 2 here],> 5 µM
5,O=C(c1cnc(-c2cnccn2)o1)N1CCc2[nH]cnc2C1c1cc2ccccn2n1 (stereo not shown),> 5 µM
6,O=C(c1cnc(-c2ccccn2)o1)N1CCc2[nH]cnc2C1c1cc2ccccn2n1 (stereo not shown) [listing 1 of 2 here],> 5 µM
7,Fc1ncccc1-c1nnc(N2CCc3[nH]cnc3C2c2cc3ccccn3n2)o1 (stereo not shown) [listing 1 of 2 here],> 5 µM
8,Cc1nnc(C(=O)N2CCc3[nH]cnc3C2c2cc3ccccn3n2)o1 (stereo not shown) [listing 1 of 2 here],> 5 µM
9,Fc1ncccc1-c1nnc(N2CCc3[nH]cnc3C2c2cc3c(C4CC4)cccn3n2)o1 (stereo not shown) [listing 1 of 2 here],> 5 µM
10,c1cncc(-c2nnc(N3CCc4[nH]cnc4C3c3cc4c(C5CC5)cccn4n3)o2)c1 (stereo not shown) [listing 1 of 2 here],> 5 µM
11,O=C(c1cn[nH]c1Cl)N1CCc2[nH]cnc2C1c1cc2ccccn2n1 (stereo not shown) [listing 1 of 2 here],1 to 5 µM
12,Cc1cccn2nc(C3c4nc[nH]c4CCN3C(=O)c3ccnn3C(F)F)cc12 (stereo not shown),1 to 5 µM
13,Cn1ccc(C(=O)N2CCc3[nH]cnc3C2c2cc3ccccn3n2)n1 (stereo not shown),> 5 µM
14,Cc1cccn2nc(C3c4nc[nH]c4CCN3c3cnn(C)c3)cc12 (stereo not shown),1 to 5 µM
15,Cn1nc(N)cc1C(=O)N1CCc2[nH]cnc2C1c1cc2ccccn2n1 (stereo not shown),> 5 µM
16,Cc1cccn2nc(C3c4nc[nH]c4CCN3C(=O)c3nnc(-c4cncn4C)o3)cc12 (stereo not shown),1 to 5 µM
17,Cc1c(C2c3nc[nH]c3CCN2C(=O)c2nnc(-c3ccn(C)n3)o2)nn2ccccc12 (stereo not shown) [listing 2 of 2 here],1 to 5 µM
18,CC(C)c1cccn2nc(C3c4nc[nH]c4CCN3c3nnc(C(C)(C)F)o3)cc12 (stereo not shown),1 to 5 µM
19,CC(C)(F)c1nnc(N2CCc3[nH]cnc3C2c2cc3ccccn3n2)o1 (stereo not shown),> 5 µM
20,Cc1n[nH]cc1-c1nnc(C(=O)N2CCc3[nH]cnc3C2c2cc3c(C)cccn3n2)o1 (stereo not shown),1 to 5 µM
21,Fc1cccn2nc(C3c4nc[nH]c4CCN3c3nnc(C4CC(F)(F)C4)o3)cc12 (stereo not shown),1 to 5 µM
22,FC1(F)CC(c2nnc(N3CCc4[nH]cnc4C3c3cc4c(C(F)(F)F)cccn4n3)o2)C1 (stereo not shown),1 to 5 µM
23,CC1(c2nnc(N3CCc4[nH]cnc4C3c3cc4c(C(F)F)cccn4n3)o2)CC1 (stereo not shown),1 to 5 µM
24,FC1(F)CC(c2nnc(N3CCc4[nH]cnc4C3c3cc4c(Cl)cccn4n3)o2)C1 (stereo not shown),1 to 5 µM
25,CC(C)(F)c1nnc(N2CCc3[nH]cnc3C2c2cc3c(Cl)cccn3n2)o1 (stereo not shown),> 5 µM

row,SMILES,AC50
1,FC1(F)CC(c2nnc(N3CCc4[nH]cnc4C3c3cc4c(C5CC5)cccn4n3)o2)C1 (stereo not shown),1 to 5 µM
2,Cc1n[nH]cc1-c1nnc(C(=O)N2CCc3[nH]cnc3C2c2cc3c(F)cccn3n2)o1 (stereo not shown),1 to 5 µM
3,Cn1cncc1-c1nnc(C(=O)N2CCc3[nH]cnc3C2c2cc3c(F)cccn3n2)o1 (stereo not shown),1 to 5 µM
4,COc1cccn2nc(C3c4nc[nH]c4CCN3C(=O)c3oc(C(C)(C)O)nc3C(F)F)cc12 (stereo not shown),> 5 µM
5,c1cnc(-c2nnc(N3CCc4[nH]cnc4C3c3cc4c(C5CC5)cccn4n3)o2)nc1 (stereo not shown),1 to 5 µM
6,Cc1cccn2nc(C3c4nc[nH]c4CCN3C(=O)c3cnc(C(C)(C)O)o3)cc12 (stereo not shown),1 to 5 µM
7,FC(F)(F)c1cccc2cc(C3c4nc[nH]c4CCN3c3nnc(-c4cnccn4)o3)nn12 (stereo not shown),1 to 5 µM
8,Cc1cccc2cc(C3c4nc[nH]c4CCN3c3nnc(-c4cnccn4)o3)nn12 (stereo not shown) [listing 2 of 2 here],1 to 5 µM
9,CC(C)(O)c1cc(C(=O)N2CCc3[nH]cnc3C2c2cc3ccccn3n2)on1 (stereo not shown),1 to 5 µM
10,O=C(c1cnn(-c2ccccn2)c1Cl)N1CCc2[nH]cnc2C1c1cc2ccccn2n1 (stereo not shown),1 to 5 µM
11,CC(C)c1nnc(N2CCc3[nH]cnc3C2c2cc3c(C(C)C)cccn3n2)o1 (stereo not shown),> 5 µM
12,Fc1cccc(-c2nnc(N3CCc4[nH]cnc4C3c3cc4ccccn4n3)o2)n1 (stereo not shown),1 to 5 µM
13,Cc1nnc(C(=O)N2CCc3[nH]cnc3C2c2cc3ccccn3n2)o1 (stereo not shown) [listing 2 of 2 here],1 to 5 µM
14,Fc1ncccc1-c1nnc(N2CCc3[nH]cnc3C2c2cc3c(C(F)F)cccn3n2)o1 (stereo not shown) [listing 2 of 2 here],1 to 5 µM
15,c1cncc(-c2nnc(N3CCc4[nH]cnc4C3c3cc4c(C5CC5)cccn4n3)o2)c1 (stereo not shown) [listing 2 of 2 here],1 to 5 µM
16,c1cnnc(-c2nnc(N3CCc4[nH]cnc4C3c3cc4c(C5CC5)cccn4n3)o2)c1 (stereo not shown),1 to 5 µM
17,Fc1ncccc1-c1nnc(N2CCc3[nH]cnc3C2c2cc3c(C4CC4)cccn3n2)o1 (stereo not shown) [listing 2 of 2 here],1 to 5 µM
18,Cc1cccn2nc(C3c4nc[nH]c4CCN3c3nnc(-c4cccnc4)o3)cc12 (stereo not shown),1 to 5 µM
19,Cc1cccn2nc(C3c4nc[nH]c4CCN3C(=O)c3ocnc3C(F)F)cc12 (stereo not shown),1 to 5 µM
20,Cc1ccc2cc(C3c4nc[nH]c4CCN3C(=O)c3ocnc3C(F)F)nn2c1 (stereo not shown),1 to 5 µM
21,NC(=O)c1ncoc1C(=O)N1CCc2[nH]cnc2C1c1cc2ccccn2n1 (stereo not shown),1 to 5 µM
22,O=C(c1ccn[nH]1)N1CCc2[nH]cnc2C1c1cc2ccccn2n1 (stereo not shown),> 5 µM
23,O=C(c1cn[nH]c1Cl)N1CCc2[nH]cnc2C1c1cc2ccccn2n1 (stereo not shown) [listing 2 of 2 here],1 to 5 µM
24,Fc1ccc(-c2nnc(N3CCc4[nH]cnc4C3c3cc4ccccn4n3)o2)nc1 (stereo not shown),1 to 5 µM
25,Cc1cccn2nc(C3c4nc[nH]c4CCN3C(=O)c3oc(C(C)O)nc3C(F)F)cc12 (stereo not shown),1 to 5 µM

# Further lines, results first:
row,AC50,SMILES
1,> 5 µM,Cc1nc(-c2ccccn2)oc1C(=O)N1CCc2[nH]cnc2C1c1cc2ccccn2n1 (stereo not shown)
2,> 5 µM,Fc1cccnc1-c1nnc(N2CCc3[nH]cnc3C2c2cc3c(C4CC4)cccn3n2)o1 (stereo not shown) [listing 1 of 2 here]
3,> 5 µM,Fc1ncccc1-c1nnc(N2CCc3[nH]cnc3C2c2cc3c(C(F)F)cccn3n2)o1 (stereo not shown) [listing 1 of 2 here]
4,1 to 5 µM,Cc1ncccc1-c1nnc(N2CCc3[nH]cnc3C2c2cc3c(C4CC4)cccn3n2)o1 (stereo not shown)
5,1 to 5 µM,O=C(c1nnc(-c2cnn(CC(F)F)c2)o1)N1CCc2[nH]cnc2C1c1cc2ccccn2n1 (stereo not shown)
6,1 to 5 µM,Cc1c(C2c3nc[nH]c3CCN2C(=O)c2nnc(-c3cnn(C)c3)o2)nn2ccccc12 (stereo not shown)
7,1 to 5 µM,Cc1ccn2nc(C3c4nc[nH]c4CCN3C(=O)c3nnc(-c4cnn(C)c4)o3)cc2c1 (stereo not shown)
8,1 to 5 µM,CC(F)(F)c1nnc(N2CCc3[nH]cnc3C2c2cc3cccc(C(F)(F)F)n3n2)o1 (stereo not shown)
9,1 to 5 µM,CC(C)(F)c1nnc(N2CCc3[nH]cnc3C2c2cc3c(F)cccn3n2)o1 (stereo not shown)
10,1 to 5 µM,CC(C)(F)c1nnc(C(=O)N2CCc3[nH]cnc3C2c2cc3ccccn3n2)o1 (stereo not shown) [listing 2 of 2 here]
11,> 5 µM,CC(C)(O)c1cc(C(=O)N2CCc3[nH]cnc3C2c2cc3ccccn3n2)no1 (stereo not shown)
12,> 5 µM,CC(C)(O)c1nc(C(=O)N2CCc3[nH]cnc3C2c2cc3ccccn3n2)no1 (stereo not shown)
13,1 to 5 µM,FC(F)c1cccn2nc(C3c4nc[nH]c4CCN3c3nnc(C4CC(F)(F)C4)o3)cc12 (stereo not shown)
14,> 5 µM,CC(C)c1cccn2nc(C3c4nc[nH]c4CCN3c3cnccn3)cc12 (stereo not shown)
15,> 5 µM,CC(C)c1nnc(N2CCc3[nH]cnc3C2c2cc3c(C4CC4)cccn3n2)o1 (stereo not shown)
16,> 5 µM,CC(C)(F)c1nnc(N2CCc3[nH]cnc3C2c2cc3c(C4CC4)cccn3n2)o1 (stereo not shown)
17,1 to 5 µM,COc1cccn2nc(C3c4nc[nH]c4CCN3C(=O)c3nnc(-c4cnn(C)c4)o3)cc12 (stereo not shown)
18,1 to 5 µM,Clc1cccn2nc(C3c4nc[nH]c4CCN3c3nnc(-c4ncccn4)o3)cc12 (stereo not shown)
19,1 to 5 µM,Cc1c(C2c3nc[nH]c3CCN2C(=O)c2nnc(-c3ccccn3)o2)nn2ccccc12 (stereo not shown)
20,1 to 5 µM,Fc1cccnc1-c1nnc(N2CCc3[nH]cnc3C2c2cc3c(C(F)F)cccn3n2)o1 (stereo not shown)
21,1 to 5 µM,FC(F)c1cccn2nc(C3c4nc[nH]c4CCN3c3nnc(-c4ncccn4)o3)cc12 (stereo not shown)

row,AC50,SMILES
1,1 to 5 µM,Fc1cccnc1-c1nnc(N2CCc3[nH]cnc3C2c2cc3c(C4CC4)cccn3n2)o1 (stereo not shown) [listing 2 of 2 here]
2,1 to 5 µM,Fc1cccn2nc(C3c4nc[nH]c4CCN3c3nnc(-c4ncccn4)o3)cc12 (stereo not shown)
3,1 to 5 µM,Clc1cccc2cc(C3c4nc[nH]c4CCN3c3nnc(-c4cnccn4)o3)nn12 (stereo not shown)
4,1 to 5 µM,O=C(c1cnc(-c2ccccn2)o1)N1CCc2[nH]cnc2C1c1cc2ccccn2n1 (stereo not shown) [listing 2 of 2 here]
5,1 to 5 µM,O=C(c1ccnn1-c1ccccn1)N1CCc2[nH]cnc2C1c1cc2ccccn2n1 (stereo not shown)
6,1 to 5 µM,Fc1ncccc1-c1nnc(N2CCc3[nH]cnc3C2c2cc3c(C(F)(F)F)cccn3n2)o1 (stereo not shown)
7,1 to 5 µM,Fc1ncccc1-c1nnc(N2CCc3[nH]cnc3C2c2cc3ccccn3n2)o1 (stereo not shown) [listing 2 of 2 here]
8,1 to 5 µM,Cc1ncccc1-c1nnc(N2CCc3[nH]cnc3C2c2cc3ccccn3n2)o1 (stereo not shown)
9,> 5 µM,O=C(C1CN(CC(F)(F)F)C1)N1CCc2[nH]cnc2C1c1cc2ccccn2n1 (stereo not shown)
10,1 to 5 µM,FC(F)c1cccn2nc(C3c4nc[nH]c4CCN3c3nnc(-c4cccnc4)o3)cc12 (stereo not shown)
11,1 to 5 µM,Cn1cc(N2CCc3[nH]cnc3C2c2cc3c(F)cccn3n2)cn1 (stereo not shown)
12,> 5 µM,O=C(c1cn[nH]c1)N1CCc2[nH]cnc2C1c1cc2ccccn2n1 (stereo not shown)
13,1 to 5 µM,COc1cccn2nc(C3c4nc[nH]c4CCN3C(=O)c3ocnc3C(F)F)cc12 (stereo not shown)
14,1 to 5 µM,CCn1cnnc1C(=O)N1CCc2[nH]cnc2C1c1cc2ccccn2n1 (stereo not shown)
15,1 to 5 µM,O=C(c1ocnc1C(F)F)N1CCc2[nH]cnc2C1c1cc2c(Cl)cccn2n1 (stereo not shown)
16,1 to 5 µM,O=C(c1cnco1)N1CCc2[nH]cnc2C1c1cc2ccccn2n1 (stereo not shown)
17,1 to 5 µM,O=C(c1cnn(CC(F)(F)F)c1Cl)N1CCc2[nH]cnc2C1c1cc2ccccn2n1 (stereo not shown)
18,1 to 5 µM,Cc1nc(C(C)O)oc1C(=O)N1CCc2[nH]cnc2C1c1cc2ccccn2n1 (stereo not shown)
19,1 to 5 µM,CC(O)c1nc(C(F)F)c(C(=O)N2CCc3[nH]cnc3C2c2cc3c(Cl)cccn3n2)o1 (stereo not shown)
20,1 to 5 µM,Cc1nc(C(C)O)oc1C(=O)N1CCc2[nH]cnc2C1c1cc2c(F)cccn2n1 (stereo not shown)
